In patent US20250228239A1, “MOLECULES HAVING PESTICIDAL UTILITY, AND INTERMEDIATES, COMPOSITIONS, AND PROCESSES, RELATED THERETO” (priority 2024, published 2025):

How the values were obtained:
Type in all cases: in vivo
[1] = tested on: Beet Armyworm (Spodoptera exigua, LAPHEG); assay: Bioassays on Beet Armyworm (BAW), 128-well diet tray assay; conditions: Spodoptera exigua; Table ABC: Biological Results; species BAW; read-out: BAW
How it was run: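 Larvae at second instar are exposed on dried, compound-treated diet (50 μg/cm^2, delivered in 90:10 acetone-water) in eight replicate wells. After five to seven days at 25° C., 14:10 light-dark, percent mortality in each well is scored and the eight wells averaged.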

[2] = tested on: Cabbage Looper (Trichoplusia ni, TRIPNI); assay: Bioassays on Cabbage Looper (CL), 128-well diet tray assay; conditions: Trichoplusia ni; Table ABC: Biological Results; species CL; read-out: CL
How it was run: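 One to five second-instar larvae per well on artificial diet surface-treated with 50 μg/cm^2 test molecule (applied in 90:10 acetone-water, dried). Held 5–7 days at 25° C, 14:10 light-dark; percent mortality recorded per well and averaged over eight wells.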

[3] = tested on: Yellow Fever Mosquito (Aedes aegypti, AEDSAE); conditions: Table ABC: Biological Results; species YFM
How it was run: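 Larvae ~1 day old, in liver powder/water; compound from 4000 ppm DMSO stock diluted with water/acetone (90:10); 6 reps; lidded, RT, 3 d; mortality scored per well, rated.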

| Compound | pest or weed control at 50 µg/cm2 [1] [%] | pest or weed control at 50 µg/cm2 [2] [%] | YFM [3] |
| --- | --- | --- | --- |
| COc1c(F)cc(NC(=O)[C@H]2[C@H](c3ccc(F)c(Cl)c3)C2(Cl)Cl)cc1C(=O)Nc1ccc(F)cc1 (relative stereo) [F1218, trans-5-(2,2-Dichloro-3-(3-chloro-4-fluorophenyl)cyclopropane-1-carboxamido)-3-fluoro-N-(4-fluorophenyl)-2-methoxybenzamide] | 50 to 100 | 50 to 100 | A (80–100) |
| COc1c(F)cc(NC(=O)[C@H]2[C@H](c3ccc(F)c(Cl)c3)C2(Cl)Cl)cc1C(=O)Nc1ccc(F)cc1F (relative stereo) [F1219, trans-5-(2,2-Dichloro-3-(3-chloro-4-fluorophenyl)cyclopropane-1-carboxamido)-N-(2,4-difluorophenyl)-3-fluoro-2-methoxybenzamide] | 50 to 100 | 50 to 100 | A (80–100) |
| COc1c(F)cc(NC(=O)[C@H]2[C@H](c3ccc(F)c(Cl)c3)C2(Cl)Cl)cc1C(=O)Nc1ccc(NC(C)=O)cc1 (relative stereo) [F1220, trans-N-(4-Acetamidophenyl)-5-(2,2-dichloro-3-(3-chloro-4-fluorophenyl)-cyclopropane-1-carboxamido)-3-fluoro-2-methoxybenzamide] | 50 to 100 | 50 to 100 | A (80–100) |
| Cc1c(N)ccc(NC(=O)c2cc(NC(=O)[C@H]3[C@H](c4cc(Cl)cc(Cl)c4)C3(Cl)Cl)ccc2Cl)c1C (relative stereo) [F1229, trans-N-(4-amino-2,3-dimethylphenyl)-2-chloro-5-(2,2-dichloro-3-(3,5-dichlorophenyl)cyclopropane-1-carboxamido)benzamide] | 50 to 100 | 50 to 100 | A (80–100) |
| O=C(Nc1ccc(F)cc1F)c1cc(NC(=O)[C@H]2[C@H](c3cc(Cl)cc(S(F)(F)(F)(F)F)c3)C2(Cl)Cl)ccc1Cl (relative stereo) [F1232, trans-2-chloro-5-(2,2-dichloro-3-(3-chloro-5-(pentafluoro-λ^6-sulfanyl)phenyl)cyclopropane-1-carboxamido)-N-(2,4-difluorophenyl)benzamide] | 50 to 100 | 50 to 100 | A (80–100) |
| Nc1c(F)ccc(NC(=O)c2cc(NC(=O)[C@H]3[C@H](c4cc(Cl)cc(S(F)(F)(F)(F)F)c4)C3(Cl)Cl)ccc2Cl)c1F (relative stereo) [F1259, trans-N-(3-Amino-2,4-difluorophenyl)-2-chloro-5-(2,2-dichloro-3-(3-chloro-5-(pentafluoro-λ^6-sulfanyl)phenyl)cyclopropane-1-carboxamido)benzamide] | 50 to 100 | 50 to 100 | A (80–100) |
| Cc1c(F)cc(NC(=O)[C@H]2[C@H](c3ccc(F)c(Cl)c3)C2(Cl)Cl)cc1C(=O)Nc1ccc(F)cc1 (relative stereo) [F1278, trans-5-(2,2-Dichloro-3-(3-chloro-4-fluorophenyl)cyclopropane-1-carboxamido)-3-fluoro-N-(4-fluorophenyl)-2-methylbenzamide] | 50 to 100 | 50 to 100 | A (80–100) |
| Cc1c(F)cc(NC(=O)[C@H]2[C@H](c3ccc(F)c(Cl)c3)C2(Cl)Cl)cc1C(=O)Nc1ccc(F)cc1F (relative stereo) [F1279, trans-5-(2,2-Dichloro-3-(3-chloro-4-fluorophenyl)cyclopropane-1-carboxamido)-N-(2,4-difluorophenyl)-3-fluoro-2-methylbenzamide] | 50 to 100 | 50 to 100 | B (More than 0 – Less than 80) |
| O=C(Nc1ccc(F)c(NC(=O)C(F)F)c1F)c1cc(NC(=O)[C@H]2[C@H](c3cccc(I)c3)C2(Cl)Cl)ccc1Cl (relative stereo) [F1281, trans-2-chloro-5-(2,2-dichloro-3-(3-iodophenyl)cyclopropane-1-carboxamido)-N-(3-(2,2-difluoroacetamido)-2,4-difluorophenyl)benzamide] | 50 to 100 | 50 to 100 | A (80–100) |
| O=C(Nc1ccc(F)c(Br)c1)c1cc(NC(=O)[C@H]2[C@H](c3cc(Cl)cc(Cl)c3)C2(Cl)Cl)ccc1Cl (relative stereo) [F1304, trans-N-(3-bromo-4-fluorophenyl)-2-chloro-5-(2,2-dichloro-3-(3,5-dichlorophenyl)cyclopropane-1-carboxamido)benzamide] | 50 to 100 | 50 to 100 | A (80–100) |
| O=C(Nc1ccc(F)cc1Br)c1cc(NC(=O)[C@H]2[C@H](c3cc(Cl)cc(Cl)c3)C2(Cl)Cl)ccc1Cl (relative stereo) [F1305, trans-N-(2-Bromo-4-fluorophenyl)-2-chloro-5-(2,2-dichloro-3-(3,5-dichlorophenyl)cyclopropane-1-carboxamido)benzamide] | 50 to 100 | 50 to 100 | A (80–100) |
| O=C(Nc1c(F)cc(F)cc1Br)c1cc(NC(=O)[C@H]2[C@H](c3cc(Cl)cc(Cl)c3)C2(Cl)Cl)ccc1Cl (relative stereo) [F1309, trans-N-(2-Bromo-4,6-difluorophenyl)-2-chloro-5-(2,2-dichloro-3-(3,5-dichlorophenyl)cyclopropane-1-carboxamido)benzamide] | 50 to 100 | 50 to 100 | A (80–100) |
| C=Cc1cc(NC(=O)c2cc(NC(=O)[C@H]3[C@H](c4cc(Cl)cc(Cl)c4)C3(Cl)Cl)ccc2Cl)ccc1F (relative stereo) [F1311, trans-2-chloro-5-(2,2-dichloro-3-(3,5-dichlorophenyl)cyclopropane-1-carboxamido)-N-(4-fluoro-3-vinylphenyl)benzamide] | 50 to 100 | 50 to 100 | A (80–100) |
| C=Cc1cc(F)ccc1NC(=O)c1cc(NC(=O)[C@H]2[C@H](c3cc(Cl)cc(Cl)c3)C2(Cl)Cl)ccc1Cl (relative stereo) [F1312, trans-2-Chloro-5-(2,2-dichloro-3-(3,5-dichlorophenyl)cyclopropane-1-carboxamido)-N-(4-fluoro-2-vinylphenyl)benzamide] | 50 to 100 | 50 to 100 | A (80–100) |
| C=Cc1ccc(NC(=O)c2cc(NC(=O)[C@H]3[C@H](c4cc(Cl)cc(Cl)c4)C3(Cl)Cl)ccc2Cl)c(F)c1 (relative stereo) [F1313, trans-2-Chloro-5-(2,2-dichloro-3-(3,5-dichlorophenyl)cyclopropane-1-carboxamido)-N-(2-fluoro-4-vinylphenyl)benzamide] | 50 to 100 | 50 to 100 | A (80–100) |
| C=Cc1c(F)ccc(NC(=O)c2cc(NC(=O)[C@H]3[C@H](c4cc(Cl)cc(Cl)c4)C3(Cl)Cl)ccc2Cl)c1F (relative stereo) [F1314, trans-2-Chloro-5-(2,2-dichloro-3-(3,5-dichlorophenyl)cyclopropane-1-carboxamido)-N-(2,4-difluoro-3-vinylphenyl)benzamide] | 50 to 100 | 50 to 100 | A (80–100) |
| C=Cc1cc(NC(=O)c2cc(NC(=O)[C@H]3[C@H](c4cc(Cl)cc(Cl)c4)C3(Cl)Cl)ccc2Cl)c(F)cc1F (relative stereo) [F1315, trans-2-Chloro-5-(2,2-dichloro-3-(3,5-dichlorophenyl)cyclopropane-1-carboxamido)-N-(2,4-difluoro-5-vinylphenyl)benzamide] | 50 to 100 | 50 to 100 | A (80–100) |
| C=Cc1cc(F)cc(F)c1NC(=O)c1cc(NC(=O)[C@H]2[C@H](c3cc(Cl)cc(Cl)c3)C2(Cl)Cl)ccc1Cl (relative stereo) [F1316, trans-2-Chloro-5-(2,2-dichloro-3-(3,5-dichlorophenyl)cyclopropane-1-carboxamido)-N-(2,4-difluoro-6-vinylphenyl)benzamide] | 50 to 100 | 50 to 100 | A (80–100) |
| C=Cc1cc(NC(=O)c2cc(NC(=O)[C@H]3[C@H](c4cc(Cl)cc(Cl)c4)C3(Cl)Cl)ccc2Cl)cc(F)c1F (relative stereo) [F1317, trans-2-Chloro-5-(2,2-dichloro-3-(3,5-dichlorophenyl)cyclopropane-1-carboxamido)-N-(3,4-difluoro-5-vinylphenyl)benzamide] | 50 to 100 | 50 to 100 | A (80–100) |
| C=C(F)c1cc(NC(=O)c2cc(NC(=O)[C@H]3[C@H](c4cc(Cl)cc(Cl)c4)C3(Cl)Cl)ccc2Cl)ccc1F (relative stereo) [F1318, trans-2-Chloro-5-(2,2-dichloro-3-(3,5-dichlorophenyl)cyclopropane-1-carboxamido)-N-(4-fluoro-3-(1-fluorovinyl)phenyl)benzamide] | 50 to 100 | 50 to 100 | A (80–100) |
| C=C(F)c1cc(F)ccc1NC(=O)c1cc(NC(=O)[C@H]2[C@H](c3cc(Cl)cc(Cl)c3)C2(Cl)Cl)ccc1Cl (relative stereo) [F1319, trans-2-Chloro-5-(2,2-dichloro-3-(3,5-dichlorophenyl)cyclopropane-1-carboxamido)-N-(4-fluoro-2-(1-fluorovinyl)phenyl)benzamide] | 50 to 100 | 50 to 100 | A (80–100) |
